Reference: the supplement of paper PMC10307832

How the values were obtained:
Assay in all cases: relative viability (nuclei count vs DMSO), 5 days (fraction); higher = more cells survive
Ibrutinib + Alpelisib = compound: C=CC(=O)N1CCC[C@@H](n2nc(-c3ccc(Oc4ccccc4)cc3)c3c(N)ncnc32)C1 [Ibrutinib] + Cc1nc(NC(=O)N2CCC[C@H]2C(N)=O)sc1-c1ccnc(C(C)(C)C(F)(F)F)c1 [Alpelisib] (partner 2 µM)
Summary of the method: (§1)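 Each reported value is a median over duplicate plates. It expresses relative viability: treated-well nuclei count divided by vehicle-well nuclei count. Lung cancer cell lines in 1536-well plates were dosed by pin tool a day after seeding, alone with one drug or with a fixed anchor-drug dose plus five library-drug doses (not always all listed) in √10 steps, and nuclei were counted after 5 days.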

Ibrutinib + Dasatinib = compound: C=CC(=O)N1CCC[C@@H](n2nc(-c3ccc(Oc4ccccc4)cc3)c3c(N)ncnc32)C1 [Ibrutinib] + Cc1nc(Nc2ncc(C(=O)Nc3c(C)cccc3Cl)s2)cc(N2CCN(CCO)CC2)n1 [Dasatinib] (partner 0.075 µM)
Summary of the method: as §1

PAC-1 + Crizotinib = compound: C=CCc1cccc(/C=N/NC(=O)CN2CCN(Cc3ccccc3)CC2)c1O [PAC-1] + C[C@@H](Oc1cc(-c2cnn(C3CCNCC3)c2)cnc1N)c1c(Cl)ccc(F)c1Cl [Crizotinib] (partner 1 µM)
Summary of the method: as §1

PAC-1 + Pemetrexed = compound: C=CCc1cccc(/C=N/NC(=O)CN2CCN(Cc3ccccc3)CC2)c1O [PAC-1] + Nc1nc2[nH]cc(CCc3ccc(C(=O)N[C@@H](CCC(=O)O)C(=O)O)cc3)c2c(=O)[nH]1 [Pemetrexed] (partner 0.2 µM)
Summary of the method: as §1

SK-MES-1 was tested, and the relative viability (Ibrutinib + Alpelisib; first compound 0.005 µM) was 0.441, the relative viability (Ibrutinib + Alpelisib; first compound 0.01581 µM) was 0.842 and the relative viability (Ibrutinib + Alpelisib; first compound 0.05 µM) was 0.599. For the same cell line, the relative viability (Ibrutinib + Alpelisib; first compound 0.1581 µM) was 1, the relative viability (Ibrutinib + Alpelisib; first compound 0.5 µM) was 0.379 and the relative viability (Ibrutinib + Dasatinib; first compound 0.005 µM) was 0.281. It also gave a relative viability (Ibrutinib + Dasatinib; first compound 0.01581 µM) of 0.211, a relative viability (Ibrutinib + Dasatinib; first compound 0.05 µM) of 0.194 and a relative viability (Ibrutinib + Dasatinib; first compound 0.1581 µM) of 0.38. It also gave a relative viability (Ibrutinib + Dasatinib; first compound 0.5 µM) of 0.178, a relative viability (PAC-1 + Crizotinib; first compound 0.02 µM) of 1.05 and a relative viability (PAC-1 + Crizotinib; first compound 0.06325 µM) of 1.01. The relative viability (PAC-1 + Crizotinib; first compound 0.2 µM) was 1.01, the relative viability (PAC-1 + Crizotinib; first compound 2 µM) was 1.01 and the relative viability (PAC-1 + Pemetrexed; first compound 0.02 µM) was 0.939. The relative viability (PAC-1 + Pemetrexed; first compound 0.06325 µM) was 1.02, the relative viability (PAC-1 + Pemetrexed; first compound 0.2 µM) was 0.889 and the relative viability (PAC-1 + Pemetrexed; first compound 2 µM) was 0.971.
